Laboratory results taken from patent publication US11912682B2, “Isoindolinone compounds” (Monte Rosa Therapeutics, Inc., priority 2021, dated 2024).
Read-outs that look alike come from different tables or passages of the source.

Legend:
CRBN-DDB1 = CRBN-DDB1 (Homo sapiens (Human), UniProt Q96SW2); assay: Homogenous Time-Resolved Fluorescence (HTRF) binding assay to CRBN
Procedure: Compound activity was monitored in a Homogenous Time-Resolved Fluorescence (HTRF) assay using 1-[5-({2-[2-(2-{[2-(2,6-dioxopiperidin-3-yl)-1,3-dioxo-2,3-dihydro-1H-isoindol-4-yl]oxy}acetamido)ethoxy]ethyl}carbamoyl)pentyl]-3,3-dimethyl-2-[(1E,3E)-5-[(2E)-1,3,3-trimethyl-5-sulfo-2,3-dihydro-1H-indol-2-ylidene]penta-1,3-dien-1-yl]-3H-indol-1-ium-5-sulfonate as a fluorescent probe. […] Compounds were stored in dry, ambient temperatures at 10 mM. A 10-point, 1:3 dilution series was prepared from 10 mM stock concentrations in Echo-compatible LDV plates. 10 nL of each compound dilution series was dispensed into assays wells using an Echo 650 (Labcyte inc. USA). […] The assay was then allowed to incubate for 30 min at ambient temperature after transferring compound. […] Analysis and IC50 values were derived using KNIME analytics (KNIME Zurich) transformation and fitting within Collaborative Drug Discovery (Collaborative Drug Discovery USA). Ki was derived from the geometric mean of the IC50 values using the Cheng-Prustoff transformation.

GSPT1 [1] = target: T1, GSPT1 (Homo sapiens (Human), UniProt P15170+Q96SW2); assay: immunofluorescence assay for GSPT1 degradation in CAL-51 cells (Example 10); format: cell-based
Procedure: The representative compounds were tested in an immunofluorescence assay for their activity to degrade GSPT1. […] Compounds were stored at 10 mM DMSO stocks. […] Cells were subsequently rinsed with PBS and fixed in 10% Formalin solution (50 μl, Sigma HT5011)) for 20 mins at room temperature. […] Following three further PBS washes, 50 μL blocking buffer (1% BSA, Sigma A4503, in PBS) was added for 45 min for signal-to noise reduction. Primary antibody (human GSPT1, Sigma HPA052488) was diluted in blocking buffer (dil.1/300, 35 μL/well) and incubated with the cells overnight at 4° C. […] After three final PBS washes, samples were conserved in 100 μL PBS in the dark, until measurement. Image acquisition was performed on the Operetta High-Content Imager (Perkin-Elmer). […] For the determination of GSPT1 DC50 values, a custom algorithm implemented in the PerkinElmer image analysis software Harmony-Acapella® was developed. After user-defined setting of adjustment parameters, the analysis was run identically without human intervention for all image fields. DAPI staining of the nuclei was used to determine the location of cells using standard nuclei detection modules. Segmentation artifacts were removed by threshold-based filters for area, roundness and intensity. The outline of the cells was determined analogously from the sum of the normalized, smoothed DAPI and Actin channel, starting from each nucleus. […] GSPT1 degradation (DC50) was calculated after normalization to controls and data import in CDD vault Database, using non-linear regression.
Target sequence in this assay (P15170 whole entry): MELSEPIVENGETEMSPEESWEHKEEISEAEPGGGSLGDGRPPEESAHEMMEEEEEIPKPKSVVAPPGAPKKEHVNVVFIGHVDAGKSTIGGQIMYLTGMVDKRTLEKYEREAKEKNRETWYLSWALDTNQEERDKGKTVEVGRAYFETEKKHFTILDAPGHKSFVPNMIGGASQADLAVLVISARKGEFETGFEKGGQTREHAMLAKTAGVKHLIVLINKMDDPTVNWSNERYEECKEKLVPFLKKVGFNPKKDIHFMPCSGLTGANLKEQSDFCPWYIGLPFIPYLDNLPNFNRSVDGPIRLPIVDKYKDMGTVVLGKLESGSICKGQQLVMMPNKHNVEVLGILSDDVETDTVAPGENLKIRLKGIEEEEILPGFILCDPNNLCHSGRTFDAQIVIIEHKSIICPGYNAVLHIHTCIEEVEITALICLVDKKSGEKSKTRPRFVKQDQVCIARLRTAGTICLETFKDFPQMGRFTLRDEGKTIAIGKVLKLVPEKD
Target sequence in this assay (Q96SW2 whole entry): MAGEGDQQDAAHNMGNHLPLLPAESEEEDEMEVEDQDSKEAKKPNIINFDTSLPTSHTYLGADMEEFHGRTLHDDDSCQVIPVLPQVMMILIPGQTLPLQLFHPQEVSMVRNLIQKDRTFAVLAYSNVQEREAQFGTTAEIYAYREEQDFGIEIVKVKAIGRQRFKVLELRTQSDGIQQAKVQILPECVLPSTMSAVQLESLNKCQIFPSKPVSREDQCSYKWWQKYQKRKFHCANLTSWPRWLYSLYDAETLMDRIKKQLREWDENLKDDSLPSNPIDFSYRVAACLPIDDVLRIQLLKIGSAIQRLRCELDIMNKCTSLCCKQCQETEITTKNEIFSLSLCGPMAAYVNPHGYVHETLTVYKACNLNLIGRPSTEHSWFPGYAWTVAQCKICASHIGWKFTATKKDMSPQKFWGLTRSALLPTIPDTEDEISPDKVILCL
Target sequence in this assay (Q16531 2-1140 partner): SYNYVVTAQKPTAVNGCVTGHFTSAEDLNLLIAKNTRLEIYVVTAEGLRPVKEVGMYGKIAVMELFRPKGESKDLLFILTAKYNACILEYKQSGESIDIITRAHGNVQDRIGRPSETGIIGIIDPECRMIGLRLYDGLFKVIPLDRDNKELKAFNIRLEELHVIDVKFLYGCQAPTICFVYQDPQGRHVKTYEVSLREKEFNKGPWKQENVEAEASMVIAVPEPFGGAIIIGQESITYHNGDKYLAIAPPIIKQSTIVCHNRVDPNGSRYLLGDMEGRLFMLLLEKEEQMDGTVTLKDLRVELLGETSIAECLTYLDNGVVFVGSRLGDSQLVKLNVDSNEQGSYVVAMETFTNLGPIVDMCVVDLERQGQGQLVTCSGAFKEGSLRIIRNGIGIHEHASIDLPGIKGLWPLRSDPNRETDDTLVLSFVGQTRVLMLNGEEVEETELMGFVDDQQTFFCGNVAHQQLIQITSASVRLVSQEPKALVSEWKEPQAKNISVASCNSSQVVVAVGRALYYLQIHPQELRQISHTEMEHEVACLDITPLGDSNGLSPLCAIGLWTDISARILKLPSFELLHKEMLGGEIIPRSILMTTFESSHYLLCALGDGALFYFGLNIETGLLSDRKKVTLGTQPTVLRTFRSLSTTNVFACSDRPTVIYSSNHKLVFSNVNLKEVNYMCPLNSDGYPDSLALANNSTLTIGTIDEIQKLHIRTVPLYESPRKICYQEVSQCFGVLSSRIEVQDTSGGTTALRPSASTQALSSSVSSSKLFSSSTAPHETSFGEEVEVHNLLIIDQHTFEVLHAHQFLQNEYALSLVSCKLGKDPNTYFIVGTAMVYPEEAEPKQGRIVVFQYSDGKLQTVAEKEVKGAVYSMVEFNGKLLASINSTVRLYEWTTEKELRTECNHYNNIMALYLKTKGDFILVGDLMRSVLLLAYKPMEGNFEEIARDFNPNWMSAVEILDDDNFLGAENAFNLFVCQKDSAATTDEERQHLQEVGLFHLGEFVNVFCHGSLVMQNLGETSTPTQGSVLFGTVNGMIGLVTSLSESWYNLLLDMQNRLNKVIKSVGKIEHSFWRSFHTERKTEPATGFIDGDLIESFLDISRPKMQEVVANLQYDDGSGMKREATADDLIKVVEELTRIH

ZFP91 = ZFP91 (Homo sapiens (Human), UniProt Q96JP5); assay: selectivity by Western blot in MM1S cells, ZFP91; format: cell-based; parameters: key: A represents a no degradation observed at 30 μM; B represents trace degradation at 30 μM (below 20%); C represents weak degradation at 30 μM (below 50%); D represents degradation at 30 μM (>90%); E represents degradation at 3 μM (>90%); F represents degradation at 0.3 μM (>90%); conditions: 6 hours, 0.3, 3 and 30 μM
Procedure: MM1S cells were purchased from ATCC (cat. Number CRL-2974), sub-cultured in 90% RPMI 1640 with 10% FBS, supplemented with 1× P/S and incubated at 37° C., 5% CO2. Compounds were stored as 10 mM DMSO stock. For the assay, MM1S cells (3 million cells/well) were plated in 6-well plates and incubated over night. Cells were treated with respective compounds using a serial dilution: 0.3 μM, 3 μM and 30 μM as well as a vehicle only (DMSO) control for 6 hours. Media with suspension cells was subsequently transferred to 15 mL conical tubes, wells rinsed twice with ice-cold PBS and merged with cell suspension in respective 15 mL conical tube. Cells were spinned down, supernatant aspirated, pellets resuspended in ice-cold PBS and transferred to microtubes. Cells were spinned down, supernatant aspirated and pellets resuspended in 120 μL RIPA lysis buffer supplemented with protease and phosphatase inhibitors. Cell lysates were incubated on ice for 20 minutes followed by centrifugation at >20,000 xg for 5 min. Supernatants were transferred to fresh microtubes and stored at −80° C. Total protein concentration was determined using a BCA assay with a BSA standard curve and concentration of all samples was adjusted to 1 mg/mL. 25 μL 4× LDS sample buffer supplemented with 100 mM DTT was added to 75 μL sample. Samples were centrifuged (8,000 xg, 1 min) and incubated at 95° C. for 5 min followed by another centrifugation step (8,000 xg, 1 min). 20 μL of each sample was loaded on a 4-12% gel alongside a protein molecular weight marker. Gels were run in the presence of MOPS buffer at 80 Volts for 30 min, followed by 120 Volts for 1.5 h and proteins subsequently transferred onto nitrocellulose membranes at 20 Volts for 7 min using an iBlot2 Gel Transfer Device. Membranes were then cut horizontally into two pieces, covering 80-50 kDa and 50-25 kDa. Blocking the membranes was performed by gently shaking in 5% (w/v) skim milk in TSB-T for 1 hr at room temperature. All primary antibodies were used at a 1/1000 in 5% (w/v) BSA dissolved in TBST and incubated with membranes over night at 4° C. Anti-IKZF1 (Ikaros; D6N9Y; 14859S), anti-IKZF3 (Aiolos; D1C1E; 15103S) antibodies were purchased from Cell Signalling Technology, anti-ZFP91 antibody from Bethyl laboratories, anti-GSPT1 from Sigma Aldrich (HPA052488) and anti CK1alpha from AbCam (ab206652). After three washes with 1× TBST for 5 min, HRP-coupled secondary antibodies diluted in 5% (w/v) BSA/TBST (Goat Anti-Rb IgG, dil. 1/10,000; Goat Anti-Mouse IgG, dil. 1/5000) were added for 1 hr at room temperature. […] Chemiluminescence signals were then detected using a LAS-4000 system with default settings and signals quantified using Image Studio Lite software (version 5.2). […]

CK1alpha = CK1alpha (Homo sapiens (Human), UniProt P48729); assay: selectivity by Western blot in MM1S cells, CK1alpha; format: cell-based; conditions: MM1S cells, 6 hours, 0.3, 3 and 30 μM
Procedure: (§1) MM1S cells were purchased from ATCC (cat. Number CRL-2974), sub-cultured in 90% RPMI 1640 with 10% FBS, supplemented with 1× P/S and incubated at 37° C., 5% CO2. Compounds were stored as 10 mM DMSO stock. For the assay, MM1S cells (3 million cells/well) were plated in 6-well plates and incubated over night. Cells were treated with respective compounds using a serial dilution: 0.3 μM, 3 μM and 30 μM as well as a vehicle only (DMSO) control for 6 hours. Media with suspension cells was subsequently transferred to 15 mL conical tubes, wells rinsed twice with ice-cold PBS and merged with cell suspension in respective 15 mL conical tube. Cells were spinned down, supernatant aspirated, pellets resuspended in ice-cold PBS and transferred to microtubes. Cells were spinned down, supernatant aspirated and pellets resuspended in 120 μL RIPA lysis buffer supplemented with protease and phosphatase inhibitors. Cell lysates were incubated on ice for 20 minutes followed by centrifugation at >20,000 xg for 5 min. Supernatants were transferred to fresh microtubes and stored at −80° C. Total protein concentration was determined using a BCA assay with a BSA standard curve and concentration of all samples was adjusted to 1 mg/mL. 25 μL 4× LDS sample buffer supplemented with 100 mM DTT was added to 75 μL sample. Samples were centrifuged (8,000 xg, 1 min) and incubated at 95° C. for 5 min followed by another centrifugation step (8,000 xg, 1 min). 20 μL of each sample was loaded on a 4-12% gel alongside a protein molecular weight marker. Gels were run in the presence of MOPS buffer at 80 Volts for 30 min, followed by 120 Volts for 1.5 h and proteins subsequently transferred onto nitrocellulose membranes at 20 Volts for 7 min using an iBlot2 Gel Transfer Device. Membranes were then cut horizontally into two pieces, covering 80-50 kDa and 50-25 kDa. Blocking the membranes was performed by gently shaking in 5% (w/v) skim milk in TSB-T for 1 hr at room temperature. All primary antibodies were used at a 1/1000 in 5% (w/v) BSA dissolved in TBST and incubated with membranes over night at 4° C. Anti-IKZF1 (Ikaros; D6N9Y; 14859S), anti-IKZF3 (Aiolos; D1C1E; 15103S) antibodies were purchased from Cell Signalling Technology, anti-ZFP91 antibody from Bethyl laboratories, anti-GSPT1 from Sigma Aldrich (HPA052488) and anti CK1alpha from AbCam (ab206652). After three washes with 1× TBST for 5 min, HRP-coupled secondary antibodies diluted in 5% (w/v) BSA/TBST (Goat Anti-Rb IgG, dil. 1/10,000; Goat Anti-Mouse IgG, dil. 1/5000) were added for 1 hr at room temperature. After three washes with 1× TBST (5 minutes each), membranes were incubated with ECL reagent for 1 min at room temperature. Chemiluminescence signals were then detected using a LAS-4000 system with default settings and signals quantified using Image Studio Lite software (version 5.2). Membrane parts previously incubated with antibody against CK1alpha were stripped off antibodies by incubating with stripping buffer for 30 minutes followed by three washed with TBST (5 min each), blocking with 5% (w/v) skim milk for 1 hr, and incubation with primary antibody against GAPDH overnight at 4° C. Subsequent washes, incubation with secondary antibody and signal acquisition were performed as described above.

GSPT1 [2] = target: T1, GSPT1; assay: selectivity by Western blot in MM1S cells, GSPT1; format: cell-based; conditions: MM1S cells, 6 hours, 0.3, 3 and 30 μM
Procedure: as §1

IKZF3 (Aiolos) = IKZF3 (Aiolos) (Homo sapiens (Human), UniProt Q9UKT9); assay: selectivity by Western blot in MM1S cells, IKZF3; format: cell-based; parameters: key to IKZF3 degradation: A represents a no degradation observed at 30 μM; B represents trace degradation at 30 μM (below 20%); C represents weak degradation at 30 μM (below 50%); D represents degradation at 30 μM (>90%); E represents degradation at 3 μM (>90%); F represents degradation at 0.3 μM (>90%); conditions: MM1S cells, 6 hours, 0.3, 3 and 30 μM
Procedure: as §1

IKZF1 (Ikaros) = IKZF1 (Ikaros) (Homo sapiens (Human), UniProt Q13422); assay: selectivity by Western blot in MM1S cells, IKZF1; format: cell-based; parameters: key to IKZF1 degradation: A represents a no degradation observed at 30 μM; B represents trace degradation at 30 μM (below 20%); C represents weak degradation at 30 μM (below 50%); D represents degradation at 30 μM (>90%); E represents degradation at 3 μM (>90%); F represents degradation at 0.3 μM (>90%); conditions: MM1S cells, 6 hours, 0.3, 3 and 30 μM
Procedure: as §1

GSPT1 [3] = target: T1, GSPT1; assay: immunofluorescence assay for GSPT1 degradation in CAL-51 cells (Example 4); format: cell-based
Summary of the method: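 CAL-51 cells on fibronectin-coated plates were treated 6 h with serial dilutions (30 μM to 0.1 nM), then fixed and immunostained for GSPT1 with DAPI and phalloidin counterstains. Per-cell mean GSPT1 intensity from high-content imaging, normalized to controls; DC50 by non-linear regression.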
Target sequence in this assay (P15170 whole entry): as the sequence (P15170 whole entry) above
Target sequence in this assay (Q96SW2 whole entry): as the sequence (Q96SW2 whole entry) above
Target sequence in this assay (Q16531 2-1140 partner): as the sequence (Q16531 2-1140 partner) above

[4] = CRBN-DDB1, HTRF, read-out: HTRF Class (HTRF IC50, Cereblon binding)
[5] = CAL-51 cells, 6 h; read-out: IF Class (GSPT1 degradation DC50)
[6] = 6 hours, read-out: Activity for GSPT1 degradation, Code (DC50)
[7] = GSPT1 degradation, read-out: DC50 value

Sequence of ZFP91 (Q96JP5 whole entry, looked up): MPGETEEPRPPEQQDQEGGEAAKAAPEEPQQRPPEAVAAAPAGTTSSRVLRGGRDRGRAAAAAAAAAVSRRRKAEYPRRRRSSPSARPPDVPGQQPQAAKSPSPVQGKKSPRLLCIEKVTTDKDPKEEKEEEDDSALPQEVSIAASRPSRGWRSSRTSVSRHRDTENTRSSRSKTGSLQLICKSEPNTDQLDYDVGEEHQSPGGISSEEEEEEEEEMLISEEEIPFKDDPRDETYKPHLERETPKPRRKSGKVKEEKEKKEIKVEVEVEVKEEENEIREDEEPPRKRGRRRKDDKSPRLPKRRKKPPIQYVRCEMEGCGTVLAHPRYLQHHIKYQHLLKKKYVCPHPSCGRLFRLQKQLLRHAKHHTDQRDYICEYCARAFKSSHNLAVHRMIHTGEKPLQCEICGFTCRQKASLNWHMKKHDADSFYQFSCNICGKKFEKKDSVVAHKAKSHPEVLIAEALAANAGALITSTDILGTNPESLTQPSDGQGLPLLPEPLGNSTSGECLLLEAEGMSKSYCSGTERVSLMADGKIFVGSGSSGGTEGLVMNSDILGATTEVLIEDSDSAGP
Sequence of CK1alpha (P48729 whole entry, looked up): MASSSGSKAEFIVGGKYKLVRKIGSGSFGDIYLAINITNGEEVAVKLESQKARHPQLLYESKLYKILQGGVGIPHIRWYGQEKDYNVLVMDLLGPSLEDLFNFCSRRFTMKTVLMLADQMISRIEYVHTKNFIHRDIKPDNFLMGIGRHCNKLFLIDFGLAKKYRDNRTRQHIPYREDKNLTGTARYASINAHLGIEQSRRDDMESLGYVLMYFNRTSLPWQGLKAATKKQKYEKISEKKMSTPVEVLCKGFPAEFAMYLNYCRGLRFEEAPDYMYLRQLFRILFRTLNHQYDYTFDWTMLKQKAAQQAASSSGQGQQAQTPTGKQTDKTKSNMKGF
Sequence of IKZF1 (Ikaros) (Q13422 whole entry, looked up): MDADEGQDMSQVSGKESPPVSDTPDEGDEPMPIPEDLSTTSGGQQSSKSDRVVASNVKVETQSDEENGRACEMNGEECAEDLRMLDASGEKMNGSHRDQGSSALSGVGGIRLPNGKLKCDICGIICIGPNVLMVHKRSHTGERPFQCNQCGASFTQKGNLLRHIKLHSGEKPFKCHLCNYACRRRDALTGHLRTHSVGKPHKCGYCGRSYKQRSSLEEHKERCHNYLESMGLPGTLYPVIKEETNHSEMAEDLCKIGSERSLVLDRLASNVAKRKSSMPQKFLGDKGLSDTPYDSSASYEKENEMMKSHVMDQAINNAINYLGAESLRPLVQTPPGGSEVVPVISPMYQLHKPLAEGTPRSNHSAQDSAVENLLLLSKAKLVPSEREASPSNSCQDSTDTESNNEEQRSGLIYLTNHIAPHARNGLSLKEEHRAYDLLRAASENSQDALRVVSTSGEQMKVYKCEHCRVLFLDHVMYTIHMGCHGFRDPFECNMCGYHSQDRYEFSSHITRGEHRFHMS
Sequence of IKZF3 (Aiolos) (Q9UKT9 whole entry, looked up): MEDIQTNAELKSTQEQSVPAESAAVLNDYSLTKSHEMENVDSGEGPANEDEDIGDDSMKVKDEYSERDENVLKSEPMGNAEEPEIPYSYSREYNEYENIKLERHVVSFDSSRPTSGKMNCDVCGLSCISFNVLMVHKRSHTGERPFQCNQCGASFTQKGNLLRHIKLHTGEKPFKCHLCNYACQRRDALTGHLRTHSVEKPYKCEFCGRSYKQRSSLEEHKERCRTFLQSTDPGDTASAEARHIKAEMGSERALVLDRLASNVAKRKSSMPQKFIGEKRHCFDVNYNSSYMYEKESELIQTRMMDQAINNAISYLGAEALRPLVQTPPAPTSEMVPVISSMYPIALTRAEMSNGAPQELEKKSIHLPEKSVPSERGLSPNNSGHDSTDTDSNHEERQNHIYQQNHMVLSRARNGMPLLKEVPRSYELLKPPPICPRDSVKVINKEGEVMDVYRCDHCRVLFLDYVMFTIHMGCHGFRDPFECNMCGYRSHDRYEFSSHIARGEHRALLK

Structure (SMILES)	IC50 (CRBN-DDB1; [4]) [nM]	DC50 (GSPT1 [1]; [5]) [nM]	IKZF3 degradation (IKZF3 (Aiolos))	IKZF1 degradation (IKZF1 (Ikaros))	DC50 (GSPT1 [3]; [6]) [nM]	DC50 (GSPT1 [3]; [7]) [nM]	ZFP91 degradation (ZFP91)	CK1alpha degradation (CK1alpha)	GSPT1 degradation (GSPT1 [2])	IC50 (CRBN-DDB1) [nM]	DC50 (GSPT1 [1]; read-out: IF Class (GSPT1 degradation DC50); CAL-51 cells, 6 h) [nM]
COc1cc(C)c(Cl)cc1NC(=O)OCc1ccc2c(c1)C(=O)N(C1CCC(=O)NC1=O)C2 (stereo not shown) [Compound 1]	–	–	B (B represents trace degradation at 30 μM (below 20%))	A	< 30	≤ 30	A	B (B represents trace degradation at 30 μM (below 20%))	F (F represents degradation at 0.3 μM (>90%))	–	–
O=C1CCC(N2Cc3ccc(COC(=O)Nc4cccc(OC(F)(F)F)c4)cc3C2=O)C(=O)N1 (stereo not shown) [Compound 3]	–	–	A	A	< 30	≤ 30	B (B represents trace degradation at 30 μM (below 20%))	B (B represents trace degradation at 30 μM (below 20%))	F (F represents degradation at 0.3 μM (>90%))	–	–
CC(C)(C)c1ccc(NC(=O)OCc2ccc3c(c2)C(=O)N(C2CCC(=O)NC2=O)C3)cc1 (stereo not shown) [Compound 47]	–	–	A	A	< 30	≤ 30	B (B represents trace degradation at 30 μM (below 20%))	B (B represents trace degradation at 30 μM (below 20%))	F (F represents degradation at 0.3 μM (>90%))	–	–
Cc1c(Cl)cc(NC(=O)OCc2ccc3c(c2)C(=O)N(C2CCC(=O)NC2=O)C3)cc1OCCN1CCOCC1 (stereo not shown) [Compound 48]	–	–	B (B represents trace degradation at 30 μM (below 20%))	A	< 30	≤ 30	–	B (B represents trace degradation at 30 μM (below 20%))	F (F represents degradation at 0.3 μM (>90%))	–	–
CCc1ncc(NC(=O)OCc2ccc3c(c2)C(=O)N(C2CCC(=O)NC2=O)C3)cc1C (stereo not shown) [Compound 49]	–	–	A	A	< 30	≤ 30	B (B represents trace degradation at 30 μM (below 20%))	B (B represents trace degradation at 30 μM (below 20%))	F (F represents degradation at 0.3 μM (>90%))	–	–
COc1ccc(C(F)(F)C23CC(NC(=O)OCc4ccc5c(c4)C(=O)N(C4CCC(=O)NC4=O)C5)(C2)C3)cc1 (stereo not shown) [Compound 214, (2-(2,6-dioxopiperidin-3-yl)-3-oxoisoindolin-5-yl)methyl(3-(difluoro(4-methoxyphenyl)methyl)bicyclo[1.1.1]pentan-1-yl)carbamate]	–	–	–	–	–	–	–	–	–	< 100	30 to 300

Further lines, with some results ahead:

IC50 (CRBN-DDB1; [4]) [nM]	DC50 (GSPT1 [1]; [5]) [nM]	IKZF3 degradation (IKZF3 (Aiolos))	IKZF1 degradation (IKZF1 (Ikaros))	DC50 (GSPT1 [3]; [6]) [nM]	DC50 (GSPT1 [3]; [7]) [nM]	Structure (SMILES)	ZFP91 degradation (ZFP91)	CK1alpha degradation (CK1alpha)	GSPT1 degradation (GSPT1 [2])	IC50 (CRBN-DDB1) [nM]	DC50 (GSPT1 [1]; read-out: IF Class (GSPT1 degradation DC50); CAL-51 cells, 6 h) [nM]
> 1000	< 30	–	–	–	–	Cc1ccc(NC(=O)OCc2ccc3c(c2)C(=O)N([C@H]2CCC(=O)NC2=O)C3)cc1Cl (single isomer, unassigned) [Compound 175]	–	–	–	–	–
< 100	< 30	–	–	–	–	Cc1ccc(NC(=O)OCc2ccc3c(c2)C(=O)N([C@@H]2CCC(=O)NC2=O)C3)cc1Cl (single isomer, unassigned) [Compound 176]	–	–	–	–	–
